Measurements: PubChem BioAssay (NCI)
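Step 1: Grow cells in 96-well plates. Step 2: Expose to compound for 48 hours at 5 concentrations. Step 3: Interpolate endpoints linearly; if unreached, use highest concentration. At the GI50, growth is halved. TGI: concentration producing complete growth inhibition.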

Key:
Assay in all cases: DTP human tumour cell line panel, 48 h
SK-OV-3 ovarian = tested on: SK-OV-3 ovarian
UO-31 renal = tested on: UO-31 renal
SK-MEL-2 melanoma = tested on: SK-MEL-2 melanoma
786-0 renal = tested on: 786-0 renal
K-562 leukemia = tested on: K-562 leukemia
MALME-3M melanoma = tested on: MALME-3M melanoma
M14 melanoma = tested on: M14 melanoma
A498 renal = tested on: A498 renal
SK-MEL-5 melanoma = tested on: SK-MEL-5 melanoma
SNB-75 CNS = tested on: SNB-75 CNS

Row | Compound | GI50 (SK-OV-3 ovarian) [µM] | TGI (SK-OV-3 ovarian) [µM] | GI50 (UO-31 renal) [µM] | TGI (UO-31 renal) [µM] | GI50 (SK-MEL-2 melanoma) [µM] | TGI (SK-MEL-2 melanoma) [µM] | GI50 (786-0 renal) [µM] | TGI (786-0 renal) [µM] | GI50 (K-562 leukemia) [µM] | TGI (K-562 leukemia) [µM] | GI50 (MALME-3M melanoma) [µM] | TGI (MALME-3M melanoma) [µM] | GI50 (M14 melanoma) [µM] | TGI (M14 melanoma) [µM] | GI50 (A498 renal) [µM] | TGI (A498 renal) [µM] | GI50 (SK-MEL-5 melanoma) [µM] | TGI (SK-MEL-5 melanoma) [µM] | GI50 (SNB-75 CNS) [µM] | TGI (SNB-75 CNS) [µM]
1 | Cc1nc(Sc2nc3ccc([N+](=O)[O-])cc3s2)sc1C | 4.38 | 15.5 | 1.49 | 4.17 | 1.6 | 4.53 | 1.78 | 6.1 | 0.429 | 8.97 | 1.4 | 3.9 | 1.82 | 4.14 | 1.59 | 9.23 | 1.67 | 4.58 | 2.48 | 12.3
2 | CC[C@@H](O)C[C@H]1CCC[C@@]2(C[C@@H]3OC(=O)/C=C/[C@@](C)(O)[C@@H](O)[C@H](C)[C@@H](O)[C@H](OC4CCC(N(C)C)C(C)O4)[C@@H](O)[C@](C)(O)CCCCC/C=C/[C@@H]4CC(C)(C)O[C@@]4(O)C[C@H](O2)[C@H]3C)O1 (stereo partly specified) | – | 29.1 | – | 18.1 | – | 22.7 | – | 34.1 | – | 21.5 | – | 15.5 | – | 7.48 | – | 57.4 | – | 2.04 | – | 21.5
3 | CCOc1ccc(C(C)=O)cc1NC(=O)c1cccc(-c2nnn(CC)n2)c1 | 0.689 | 24.8 | 1.94 | > 100 | 0.44 | 24 | 6.25 | 74.2 | 0.454 | > 100 | 11.4 | 63.9 | 0.396 | > 100 | 0.803 | 24 | 0.465 | 16.5 | 0.209 | 12.7
4 | Cc1c(C)c2c(c(C)c1OCC(=O)O)CC[C@@](C)(CCC[C@@H](C)CCC[C@@H](C)CCCC(C)C)O2 | 76.8 | 148 | 84.1 | 152 | 64.4 | 142 | 93.3 | 185 | 62.5 | 287 | 66.5 | 130 | 41.1 | 114 | 94.9 | 167 | 58 | 122 | 69.9 | 141
5 | C/C(CC(=O)Nc1ccc(NC(=O)C/C(C)=N\NC(N)=O)cc1)=N/NC(N)=O | – | > 100 | – | > 100 | – | > 100 | – | > 100 | – | > 100 | – | > 100 | – | > 100 | – | > 100 | – | > 100 | – | > 100
6 | C=C(CN1c2ccccc2Sc2ccccc21)c1ccc(C(=O)Nc2ccccc2N)cc1 | 11.7 | > 100 | 2.03 | > 100 | > 100 | > 100 | 0.832 | > 100 | 2.47 | > 100 | > 23 | > 100 | 32.9 | > 100 | > 100 | > 100 | 44.7 | > 100 | 15.8 | > 100
7 | Cc1noc(C)c1-c1cnc2c(-c3ccc(C(=O)O)cc3)cn([C@@H](C)c3ccccn3)c2c1 | 0.635 | 32.5 | 0.102 | > 55 | 7.02 | > 100 | 2.13 | > 100 | 0.964 | > 100 | 0.635 | > 100 | 0.629 | > 100 | 0.196 | 1.87 | 0.644 | 4.07 | 0.0376 | 2.47
8 | NC(CSC(c1ccccc1)(c1ccccc1)c1ccc(F)cc1)C(=O)O (stereo unspecified) | 0.348 | 24.1 | 14.1 | > 100 | 1.95 | – | 2.92 | > 78.9 | 0.356 | – | 2.39 | > 100 | 0.402 | > 100 | 0.344 | 33.8 | 0.382 | > 70.9 | 1.74 | –
9 | CCC(C)(O)c1cn(-c2ccc(S(=O)(=O)O)cc2)nn1 (stereo unspecified) | – | > 100 | – | > 100 | – | > 100 | – | > 100 | – | > 100 | – | > 100 | – | > 100 | – | > 100 | – | > 100 | – | > 100
10 | COc1ccc2c(c1)O/C(=C\c1cccc(OCC(=O)Nc3nc(C)c(C)s3)c1)C2=O | 25.2 | > 75.3 | 0.547 | 1.02 | 1.68 | 3.22 | 0.715 | 2.08 | 2.65 | – | 1.8 | 3.92 | 0.175 | 0.368 | 7.82 | > 68.4 | 2 | > 100 | 0.862 | 6.51
11 | COc1cc(CN(c2ccc(C)cc2)C2OC(=O)c3ccccc32)cc(OC)c1OC (stereo unspecified) | 0.472 | > 57.9 | 2.7 | > 100 | 0.487 | > 100 | 0.691 | > 100 | 0.365 | > 100 | – | > 100 | 0.43 | > 100 | 0.361 | 4.52 | 0.271 | 1.76 | 0.285 | > 100
12 | Nc1ccccc1C(=O)NC(=O)Nc1ccc(Oc2ncc(Br)cn2)c(Cl)c1 | – | 3.2 | – | 9.03 | – | 5.65 | – | 3.58 | 0.00659 | 18 | – | 11.6 | – | 2.08 | – | 1.21 | 0.00688 | 1.71 | 0.0035 | –
13 | COc1cccc2nc3c(C(=O)NCCN(C)C)cccc3nc12 | – | > 46.4 | – | 66.8 | – | 22.7 | – | > 84.6 | – | 25.2 | – | 21.9 | – | 36.3 | – | 27.3 | – | 36.8 | – | > 47.9
14 | COc1cc(Nc2ncnc(Nc3ccc4c(n3)NC(=O)C(C)(C)O4)n2)cc(OC)c1OC | 0.929 | – | 0.329 | > 100 | > 100 | > 100 | 0.492 | > 22.6 | 3.55 | > 100 | 8.69 | > 100 | 5.15 | > 100 | 0.031 | 0.29 | > 100 | > 100 | 0.169 | 0.724
15 | CCc1nn2ncccc2c1-c1ccnc(NC2CC2)n1 | > 25 | > 25 | > 24 | > 25 | > 25 | > 25 | > 25 | > 25 | > 25 | > 25 | > 25 | > 25 | > 25 | > 25 | 9.73 | > 25 | > 25 | > 25 | > 25 | > 25
